Experimental data as given in ChEMBL document CHEMBL1201862, “PubChem BioAssay data set” (2004).
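Each compound was tested at five concentrations against cells in 96-well plates for 48 hours. At the GI50, growth is halved.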 The source made the active and inactive calls. Rule as the data show it: active = GI50 up to about 1.1 µM and inactive = higher.

Tests used:
Assay in all cases: inhibition of tumour cell growth, NCI panel, 48 h
786-0 = tested on: 786-0
ACHN = tested on: ACHN
CCRF-CEM = tested on: CCRF-CEM
COLO 205 = tested on: COLO 205
EKVX = tested on: EKVX
HCT-15 = tested on: HCT-15
HL-60 = tested on: HL-60
LOX IMVI = tested on: LOX IMVI
NCI-H226 = tested on: NCI-H226
OVCAR-3 = tested on: OVCAR-3
OVCAR-8 = tested on: OVCAR-8
RPMI-8226 = tested on: RPMI-8226
SF-268 = tested on: SF-268
SK-MEL-28 = tested on: SK-MEL-28
SK-OV-3 = tested on: SK-OV-3
SNB-19 = tested on: SNB-19
SNB-75 = tested on: SNB-75
SR = tested on: SR
UO-31 = tested on: UO-31
NCI/ADR-RES = tested on: NCI/ADR-RES

Row | Structure (SMILES) | GI50 (786-0) | GI50 (ACHN) | GI50 (CCRF-CEM) | GI50 (COLO 205) | GI50 (EKVX) | GI50 (HCT-15) | GI50 (HL-60) | GI50 (LOX IMVI) | GI50 (NCI-H226) | GI50 (OVCAR-3) | GI50 (OVCAR-8) | GI50 (RPMI-8226) | GI50 (SF-268) | GI50 (SK-MEL-28) | GI50 (SK-OV-3) | GI50 (SNB-19) | GI50 (SNB-75) | GI50 (SR) | GI50 (UO-31) | GI50 (NCI/ADR-RES)
1 | CCCCCCCCCCCCCC(=O)NO | 7.1 µM (inactive) | 14.9 µM (inactive) | 0.158 µM (active) | 10.5 µM (inactive) | 21.4 µM (inactive) | 3.72 µM | 1.17 µM (inactive) | 3.99 µM (inactive) | 5.05 µM (inactive) | 10.1 µM (inactive) | 12.1 µM (inactive) | 5 µM (inactive) | 7.78 µM (inactive) | 31.6 µM (inactive) | 30.5 µM (inactive) | 23.9 µM (inactive) | 11.4 µM (inactive) | 0.518 µM (active) | 6.38 µM (inactive) | 
2 | O=[N+]([O-])c1c(/C=N/Nc2ccccc2)oc(-c2ccc3c(c2)OCO3)c1-c1ccc2c(c1)OCO2 | 19.2 µM (inactive) | 4.28 µM (inactive) |  | 18.2 µM (inactive) | 12.4 µM (inactive) |  | 4.57 µM (inactive) | 0.74 µM (active) | > 100 µM (inactive) | 5.77 µM (inactive) | 5.56 µM (inactive) | 5.78 µM (inactive) | 3.93 µM (inactive) | 23.4 µM (inactive) | 30.5 µM (inactive) | 70.3 µM (inactive) | 23.4 µM (inactive) | 1.54 µM (inactive) |  | 
3 | Cc1cnc2c(c1)C(=O)C1=C(OC(C)(C)CC1O)C2=O (stereo not given) | 14.9 µM (inactive) | 15.2 µM (inactive) | 13.2 µM (inactive) | 16.7 µM (inactive) | 20.7 µM (inactive) | 16.7 µM | 4.45 µM (inactive) | 10.5 µM (inactive) | 20.1 µM (inactive) | 11.1 µM (inactive) | 15 µM (inactive) | 13.6 µM (inactive) | 14.9 µM (inactive) | 17.3 µM (inactive) | 18.9 µM (inactive) | 16.7 µM (inactive) | 14.4 µM (inactive) | 7.89 µM (inactive) | 15.7 µM (inactive) | 
4 | CCCCC1=C(C(=O)N2CCOCC2)C2(OCCO2)C1Cl (stereo not given) | 36.4 µM (inactive) | 20 µM (inactive) | > 100 µM (inactive) | 23.1 µM (inactive) | 47.1 µM (inactive) | 26.9 µM | > 100 µM (inactive) | 28.2 µM (inactive) | 35.8 µM (inactive) |  | 45.9 µM (inactive) |  | 40.8 µM (inactive) | 23 µM (inactive) | 26 µM (inactive) | 32.3 µM (inactive) | 30.2 µM (inactive) |  | 56.6 µM (inactive) | 45.9 µM (inactive)
5 | NC1=C(NC(=O)Cc2ccc(F)cc2)C(=O)c2ccccc2C1=O | 37.7 µM (inactive) | 59 µM (inactive) | > 53.5 µM (inactive) | 68.2 µM (inactive) | > 100 µM (inactive) | > 100 µM | 35.1 µM (inactive) | 14.4 µM (inactive) | > 50.4 µM (inactive) | 26.4 µM (inactive) | 33.1 µM (inactive) | > 100 µM (inactive) | 39.7 µM (inactive) | > 100 µM (inactive) | 19.4 µM (inactive) | 23.1 µM (inactive) | 29.2 µM (inactive) | > 76.4 µM (inactive) | 58.1 µM (inactive) | 
6 | CCOC(=O)c1c(N2CCOCC2)ncn(-c2cccc(Cl)c2)c1=O | > 100 µM (inactive) | > 100 µM (inactive) | > 100 µM (inactive) | > 100 µM (inactive) | > 100 µM (inactive) | > 100 µM | > 100 µM (inactive) | > 100 µM (inactive) | > 100 µM (inactive) | > 100 µM (inactive) | > 100 µM (inactive) | > 100 µM (inactive) | > 100 µM (inactive) | > 100 µM (inactive) | > 100 µM (inactive) | > 100 µM (inactive) | > 100 µM (inactive) |  |  | > 100 µM (inactive)
7 | CC1(C)C2CCC1(C)C(N/C(=C(/C(Cl)=C(Cl)Cl)[N+](=O)[O-])n1nnc3ccccc31)C2 (stereo not given) | 41.1 µM (inactive) | 20.9 µM (inactive) | 21 µM (inactive) | 18.5 µM (inactive) | 32.4 µM (inactive) | 27.7 µM |  | 33.2 µM (inactive) | 19.5 µM (inactive) | 12.4 µM (inactive) | 29.1 µM (inactive) | 25.7 µM (inactive) | 17.6 µM (inactive) | 36.7 µM (inactive) | 40 µM (inactive) | 25.1 µM (inactive) | 28 µM (inactive) |  | 21 µM (inactive) | 27.5 µM (inactive)
8 | O=C(O)c1ccc(C2=Cc3cc(Cl)ccc3OC2)cc1 | > 100 µM (inactive) | > 100 µM (inactive) | > 100 µM (inactive) | > 100 µM (inactive) | > 100 µM (inactive) | > 100 µM | > 100 µM (inactive) | > 100 µM (inactive) | > 100 µM (inactive) | > 100 µM (inactive) | > 100 µM (inactive) | > 100 µM (inactive) | > 100 µM (inactive) | > 100 µM (inactive) | > 100 µM (inactive) | > 100 µM (inactive) | 22 µM (inactive) | > 100 µM (inactive) | 90.4 µM (inactive) | 
